# Laboratory results: patent EP3409761B1, “CULTURE MEDIUM COMPOSITION, AND METHOD FOR CULTURING CELL OR TISSUE USING SAID COMPOSITION” (Nissan Chemical Corporation, priority 2012, dated 2014)
# Starred links: 1 amine or outer side, 2 acyl side, 3 side chain; linkers in the order of their positions; H or OH if unused. Positions of bridges follow the written chain, without caps; N, C: chain ends. Non-standard residues stand in square brackets, D forms with d. Residues, ends and D or L forms follow the SMILES beside them. Chains are numbered I, II in the order given. Actinocin(9to1) = Cc1c2oc3c(C)ccc(C(=O)[*:1])c3nc-2c(C(=O)[*:2])c(N)c1=O; NMeV = CN[C@H](C(=O)O)C(C)C; Sar = CNCC(=O)O
# What was measured:
# Format in all cases: cell-based
# [1] = system: human cervical cancer cell line HeLa; assay: Comparison with single layer culture method in cell proliferation test using anticancer drug; conditions: day 4
# Method: This aqueous solution was sterilized at 121°C for 20 min in an autoclave. […] Each plate was cultured by being stood still in a CO2 incubator (37°C, 5% CO2). […] The anticancer drug used was Adriamycin (manufactured by WAKO), Paclitaxel (manufactured by WAKO) or Mitomycin C (manufactured by WAKO). To the culture medium on day 4 was added an ATP reagent (150 µL) (CellTiter-Glo (registered trade mark) Luminescent Cell Viability Assay, manufactured by Promega) to give a suspension, which was stood for about 10 min at room temperature, and the luminescence intensity (RLU value) was measured by FlexStation3 (manufactured by Molecular Devices), and the number of viable cells was measured by subtracting the luminescence value of the medium alone. For WST-8 measurement, a WST-8 solution (manufactured by DOJINDO Laboratories, 15 µL) was added, the mixture was incubated at 37°C for 100 min, the absorbance at 450 nm was measured by an absorbance spectrometer (manufactured by Molecular Devices, SPECTRA MAX 190), and the number of viable cells was measured by subtracting the absorbance of the medium alone.
# [2] = system: human cervical cancer cell line HeLa; assay: Comparison with single layer culture method using agent for inducing apoptosis; conditions: day 4
# Method: This aqueous solution was sterilized at 121°C for 20 min in an autoclave. […] Each plate was cultured by being stood still in a CO2 incubator (37°C, 5% CO2). […] To the culture medium on day 4 was added an ATP reagent (150 µL) (CellTiter-Glo (registered trade mark) Luminescent Cell Viability Assay, manufactured by Promega) to give a suspension, which was stood for about 10 min at room temperature, and the luminescence intensity (RLU value) was measured by FlexStation3 (manufactured by Molecular Devices), and the number of viable cells was measured by subtracting the luminescence value of the medium alone. For WST-8 measurement, a WST-8 solution (manufactured by DOJINDO Laboratories, 15 µL) was added, the mixture was incubated at 37°C for 100 min, the absorbance at 450 nm was measured by an absorbance spectrometer (manufactured by Molecular Devices, SPECTRA MAX 190), and the number of viable cells was measured by subtracting the absorbance of the medium alone.
# [3] = system: human cervical cancer cell line HeLa; assay: Cell proliferation test using various anticancer drugs; conditions: DAG 0.030% medium; for cell density: 5 days later
# Method: This aqueous solution was sterilized at 121°C for 20 min in an autoclave. […] The anticancer drug used was Adriamycin (manufactured by WAKO), Paclitaxel (manufactured by WAKO) or Mitomycin C (manufactured by WAKO).
# Successively, this plate was cultured by being stood still in a CO2 incubator (37°C, 5% CO2) for 7 days. After culturing for 3, 5, 7 days, to the culture medium was added a WST-8 solution (manufactured by DOJINDO Laboratories, 20 µL), and the mixture was incubated at 37°C for 100 min. The absorbance at 450 nm was measured by an absorbance spectrometer (manufactured by Molecular Devices, SPECTRA MAX 190), and the number of viable cells was measured by subtracting the absorbance of the medium alone. The culture medium containing the cells after 5 days of culture was stirred with a pipette and the obtained stirred solution (20 µL) was mixed with Trypan Blue stain 0.4% (manufactured by Invitrogen, 20 µL) and the cell density was measured under a microscope.
# [4] = drug 0.001 µM, deacylated gellan gum addition group (0.015%)
# [5] = drug 0.001 µM, single layer culture group
# [6] = drug 0.01 µM, deacylated gellan gum addition group (0.015%)
# [7] = drug 0.01 µM, single layer culture group
# [8] = drug 0.1 µM, deacylated gellan gum addition group (0.015%)
# [9] = drug 0.1 µM, single layer culture group
# [10] = drug 1 µM, deacylated gellan gum addition group (0.015%)
# [11] = drug 1 µM, single layer culture group
# [12] = agent 1 µM, deacylated gellan gum addition group (0.015%)
# [13] = agent 1 µM, single layer culture group
# [14] = agent 10 µM, deacylated gellan gum addition group (0.015%)
# [15] = agent 10 µM, single layer culture group
compound,measurement,setting,value
COc1cccc2c1C(=O)c1c(O)c3c(c(O)c1C2=O)C[C@@](O)(C(=O)CO)C[C@@H]3O[C@H]1C[C@H](N)[C@H](O)[C@H](C)O1 [Adriamycin],% Control value of the RLU value (ATP measurement),[1]; [4],96 % Control
same,% Control value of the absorbance at 450 nm (WST-8 measurement),[1]; [4],105 % Control
same,% Control value of the RLU value (ATP measurement),[1]; [5],97 % Control
same,% Control value of the absorbance at 450 nm (WST-8 measurement),[1]; [5],109 % Control
same,% Control value of the RLU value (ATP measurement),[1]; [6],81 % Control
same,% Control value of the absorbance at 450 nm (WST-8 measurement),[1]; [6],86 % Control
same,% Control value of the RLU value (ATP measurement),[1]; [7],97 % Control
same,% Control value of the absorbance at 450 nm (WST-8 measurement),[1]; [7],107 % Control
same,% Control value of the RLU value (ATP measurement),[1]; [8],41 % Control
same,% Control value of the absorbance at 450 nm (WST-8 measurement),[1]; [8],36 % Control
same,% Control value of the RLU value (ATP measurement),[1]; [9],65 % Control
same,% Control value of the absorbance at 450 nm (WST-8 measurement),[1]; [9],74 % Control
same,% Control value of the RLU value (ATP measurement),[1]; [10],15 % Control
same,% Control value of the absorbance at 450 nm (WST-8 measurement),[1]; [10],4 % Control
same,% Control value of the RLU value (ATP measurement),[1]; [11],5 % Control
same,% Control value of the absorbance at 450 nm (WST-8 measurement),[1]; [11],6 % Control
same,% Control value of the RLU value (ATP measurement),[2]; [12],5 % Control
same,% Control value of the absorbance at 450 nm (WST-8 measurement),[2]; [12],3 % Control
same,% Control value of the RLU value (ATP measurement),[2]; [13],3 % Control
same,% Control value of the absorbance at 450 nm (WST-8 measurement),[2]; [13],3 % Control
same,cell density,[3]; drug 0.001 µM,5.1 10^4 cells/mL
same,"cell number (absorbance at 450 nm, WST-8)","[3]; drug 0.001 µM, day 3",0.237
same,"cell number (absorbance at 450 nm, WST-8)","[3]; drug 0.001 µM, day 5",0.246
same,"cell number (absorbance at 450 nm, WST-8)","[3]; drug 0.001 µM, day 7",0.184
same,cell density,[3]; drug 0.01 µM,2.6 10^4 cells/mL
same,"cell number (absorbance at 450 nm, WST-8)","[3]; drug 0.01 µM, day 3",0.230
same,"cell number (absorbance at 450 nm, WST-8)","[3]; drug 0.01 µM, day 5",0.098
same,"cell number (absorbance at 450 nm, WST-8)","[3]; drug 0.01 µM, day 7",0.068
same,cell density,[3]; drug 0.1 µM,1.7 10^4 cells/mL
same,"cell number (absorbance at 450 nm, WST-8)","[3]; drug 0.1 µM, day 3",0.037
same,"cell number (absorbance at 450 nm, WST-8)","[3]; drug 0.1 µM, day 5",0.005
same,"cell number (absorbance at 450 nm, WST-8)","[3]; drug 0.1 µM, day 7",< 0
same,cell density,[3]; drug 1 µM,0.6 10^4 cells/mL
same,"cell number (absorbance at 450 nm, WST-8)","[3]; drug 1 µM, day 3",< 0
same,"cell number (absorbance at 450 nm, WST-8)","[3]; drug 1 µM, day 5",< 0
same,"cell number (absorbance at 450 nm, WST-8)","[3]; drug 1 µM, day 7",< 0
C[C@@H]1C[C@H]2[C@@H]3CCC4=CC(=O)C=C[C@]4(C)[C@@]3(F)[C@@H](O)C[C@]2(C)[C@@]1(O)C(=O)CO [Dexamethasone],% Control value of the RLU value (ATP measurement),[2]; [12],232 % Control
same,% Control value of the absorbance at 450 nm (WST-8 measurement),[2]; [12],184 % Control
same,% Control value of the absorbance at 450 nm (WST-8 measurement),[2]; [13],89 % Control
same,% Control value of the RLU value (ATP measurement),[2]; [14],241 % Control
same,% Control value of the absorbance at 450 nm (WST-8 measurement),[2]; [14],173 % Control
same,% Control value of the RLU value (ATP measurement),[2]; [15],116 % Control
same,% Control value of the absorbance at 450 nm (WST-8 measurement),[2]; [15],92 % Control
COc1cc([C@@H]2c3cc4c(cc3[C@@H](O[C@@H]3O[C@@H]5CO[C@@H](C)O[C@H]5[C@H](O)[C@H]3O)[C@H]3COC(=O)[C@H]23)OCO4)cc(OC)c1O [Etoposide],% Control value of the RLU value (ATP measurement),[2]; [12],35 % Control
same,% Control value of the absorbance at 450 nm (WST-8 measurement),[2]; [12],39 % Control
same,% Control value of the RLU value (ATP measurement),[2]; [13],64 % Control
same,% Control value of the absorbance at 450 nm (WST-8 measurement),[2]; [13],68 % Control
same,% Control value of the RLU value (ATP measurement),[2]; [14],24 % Control
same,% Control value of the absorbance at 450 nm (WST-8 measurement),[2]; [14],23 % Control
same,% Control value of the RLU value (ATP measurement),[2]; [15],65 % Control
same,% Control value of the absorbance at 450 nm (WST-8 measurement),[2]; [15],63 % Control
"Cc1c2oc3c(C)ccc(C(=O)N[C@@H]4C(=O)N[C@H](C(C)C)C(=O)N5CCC[C@H]5C(=O)N(C)CC(=O)N(C)[C@@H](C(C)C)C(=O)O[C@@H]4C)c3nc-2c(C(=O)N[C@@H]2C(=O)N[C@H](C(C)C)C(=O)N3CCC[C@H]3C(=O)N(C)CC(=O)N(C)[C@@H](C(C)C)C(=O)O[C@@H]2C)c(N)c1=O [Actinomycin D] (I: T[dV]P[Sar][NMeV] / II: T[dV]P[Sar][NMeV]; ester I:1-I:C, II:1-II:C; linker I:N-II:N via Actinocin(9to1))",% Control value of the RLU value (ATP measurement),[2]; [12],4 % Control
same,% Control value of the absorbance at 450 nm (WST-8 measurement),[2]; [12],3 % Control
same,% Control value of the RLU value (ATP measurement),[2]; [13],2 % Control
same,% Control value of the absorbance at 450 nm (WST-8 measurement),[2]; [13],2 % Control
same,% Control value of the RLU value (ATP measurement),[2]; [14],6 % Control
same,% Control value of the absorbance at 450 nm (WST-8 measurement),[2]; [14],12 % Control
same,% Control value of the RLU value (ATP measurement),[2]; [15],2 % Control
same,% Control value of the absorbance at 450 nm (WST-8 measurement),[2]; [15],4 % Control
